In patent US20080064071A1, “Zwitterionic detergents for the storage and use of DNA polymerases” (priority 2006, published 2008):
Where “and” joins values, the source holds several entries; their conditions need not be identical. Equal values may be shown once.

Columns and labels:
[1] = test system: Pfu fusion DNA polymerase; experiment: Endpoint PCR with Pfu fusion DNA polymerase, detergent/surfactant added to detergent-free PCR buffer; format: biochemical, Pyrococcus furiosus; details: for PCR amplification with detergent alone (FIG. 2) / PCR product with detergent alone (FIG. 3): 0.05% of the individual detergent; for detergent concentration at which amplifications generated product yields (FIG. 1): individual detergent in fusion PCR buffer, genomic DNA targets, no product in absence of detergent
[2] = test system: Pfu fusion DNA polymerase; experiment: SYBR Green QPCR with Pfu fusion DNA polymerase; format: biochemical, Pyrococcus furiosus; details: for Effective range, concentration of each detergent in combination, SYBR Green QPCR: combination CHAPS (0.1%) + Anz. 3-10 (0.02-0.15%); for Optimal range, concentration of each detergent in combination, SYBR Green QPCR: combination CHAPS (0.1%) + Anz. 3-10 (0.05-0.15%); for Effective range, Detergent 1 (single detergent), SYBR Green QPCR / Optimal range, Detergent 1 (single detergent), SYBR Green QPCR: detergent alone; for QPCR amplification efficiency, total fluorescence and Ct values versus 0.1% Triton X100 (FIG. 7) / amplification efficiency, total fluorescence and Ct values (FIG. 8): 0.5% detergent; for amplification efficiency, total fluorescence and Ct values (FIG. 8): aldolase and GDH gene targets
Description: QPCR reactions contained DNA or cDNA template, varying amounts of primer (see Table 3 below), 300 uM each dNTP, 4 ng/ul exo Pfu fusion, 6 ng/ul hot start IgG, 0.4ng/ul single-stranded DNA-binding protein, 1× Pfu fusion DF-buffer II (pH 9), 4% DMSO, and 8% glycerol. QPCR reactions were supplemented with 0.1% Triton X100 or zwitterionic detergent, and with 0.5× SYBR Green (Molecular Probes S-7567). Reactions were cycled on the MX3000P Real-Time PCR System using the following conditions: (1 cycle) 95° C. 5 min; (40 cycles) 95° C. 10 sec, 60° C. 30 sec.

Pfu DNA polymerase = target: T1, Pfu DNA polymerase (Pyrococcus furiosus, UniProt P61875); experiment: Endpoint PCR with Pfu DNA polymerase, detergent/surfactant added to detergent-free PCR buffer; format: biochemical; details: for product yields on addition of zwitterionic detergent to PCR buffer (FIG. 5): versus buffer lacking detergent, which failed to generate product; for effectiveness relative to CHAPS and Anzergent 3-10 (FIG. 5): CHAPSO 0.05-0.2%, Anzergent 3-12 0.1-0.2%, in PCR buffer
T1 sequence (P61875 1-775): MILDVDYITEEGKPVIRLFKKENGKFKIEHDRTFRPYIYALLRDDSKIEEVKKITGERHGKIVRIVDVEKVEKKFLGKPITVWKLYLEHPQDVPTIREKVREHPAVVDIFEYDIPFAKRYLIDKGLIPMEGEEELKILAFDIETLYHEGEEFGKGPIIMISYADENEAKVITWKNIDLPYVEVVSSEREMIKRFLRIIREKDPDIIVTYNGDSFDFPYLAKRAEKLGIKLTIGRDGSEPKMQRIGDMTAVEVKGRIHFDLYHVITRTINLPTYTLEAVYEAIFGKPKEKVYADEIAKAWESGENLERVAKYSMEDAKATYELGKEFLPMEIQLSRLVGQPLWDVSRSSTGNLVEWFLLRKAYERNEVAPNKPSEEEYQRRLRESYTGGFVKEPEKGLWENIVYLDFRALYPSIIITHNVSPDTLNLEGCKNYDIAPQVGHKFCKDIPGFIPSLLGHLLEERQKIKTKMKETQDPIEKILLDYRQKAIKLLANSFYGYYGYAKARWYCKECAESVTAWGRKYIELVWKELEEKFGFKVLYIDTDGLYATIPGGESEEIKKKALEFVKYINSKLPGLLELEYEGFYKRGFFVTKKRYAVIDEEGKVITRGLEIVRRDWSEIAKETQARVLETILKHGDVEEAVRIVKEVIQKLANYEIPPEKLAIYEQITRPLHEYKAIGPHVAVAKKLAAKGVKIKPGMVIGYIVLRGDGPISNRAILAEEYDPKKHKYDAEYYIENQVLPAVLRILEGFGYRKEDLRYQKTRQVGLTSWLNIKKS
Description: Pfu (exo+ and exo−) fusion DNA polymerase (e.g., as described in U.S. patent application Ser. No.: 11/488,535, filed Jul. 17, 2006, and herein incorporated by reference in its entirety), cPfu DNA polymerase (Stratagene catalog #600154), and PEF were purified using standard production protocols (no detergent present), except that non-ionic detergents were omitted from the final storage buffers. Enzymes were stored at −20° C. in 50 mM Tris-HCl (pH 8.2), 0.1 mM EDTA, 1 mM DTT, and 50% glycerol. DNA polymerase storage buffers were additionally supplemented with one or more zwitterionic detergents, in percentages (v/v) ranging from 0.05% to 0.5%.
PCR reaction buffers were prepared without non-ionic detergents (“DF buffer”, detergent-free buffer). For example, 1× cPfu DF-buffer contains 10 mM KCl, 10 mM (NH4)2SO4, 20 mM Tris HCl (pH 8.8), 2 mM MgSO4, and 100 ug/ml BSA. Detergent-free versions of Pfu fusion buffers were also prepared, and consisted of: 40 mM Tris-SO4 (pH 10), 15 mM K2SO4, 8 mM (NH4)2SO4, 2 mM MgSO4 (1× Pfu fusion DF-buffer I) or 30 mM Tris-SO4 (pH 10), 40 mM K2SO4, 1.5 mM (NH4)2SO4, 2 mM MgSO4 (1× Pfu fusion DF-buffer II).
PCR reaction buffers were supplemented with 0.1% Triton X100 (non-ionic detergent) or with one or more zwitterionic detergents or non-detergent surfactants. For example, zwitterionic detergents CHAPS, CHAPSO, 3-10, and 3-12 were obtained from AnaTrace, Inc. (Maumee, Ohio) and added to DF-buffers in percentages (v/v) ranging from 0.05% to 0.5%. The non-detergent surfactant, Surfynol 465, was purchased from Air Products and used in a similar fashion.
For the 0.9 kb and 6 kb systems, PCR reactions (50 ul) were conducted with 40 ng cPfu DNA polymerase in IX cPfu DF-buffer or with 28 ng or 224 ng Pfu fusion DNA polymerase in 1× Pfu fusion DF-buffer I or DF-buffer II, respectively. PCR reactions also contained 2 U/50 ul Pyrococcus furiosus dUTPase (PEF), 100 ng of human genomic DNA, 250 uM each dNTP, and 100 ng of each primer. For the 9 kb system, PCR reactions (50 ul) consisted of 80 ng Pfu, 1.5× cPfu DF-buffer, 2U Pyrococcus furiosus dUTPase (PEF), 200 ng of human genomic DNA, 500 uM each dNTP, and 200 ng of each primer. PCR reaction buffers were supplemented with 0.1% Triton X100 or with zwitterionic detergent(s).

[3] = test system: Pfu and Pfu fusion DNA polymerase; experiment: Endpoint PCR, enhancing detergents and detergent combinations (Table 2); format: biochemical, Pyrococcus furiosus; details: for Effective range, Detergent 1 (single detergent) / Optimal range, Detergent 1 (single detergent): endpoint PCR, detergent alone
[4] = test system: Pfu fusion DNA polymerase; experiment: Accelerated stability study of Pfu fusion DNA polymerase in storage buffer, residual activity by 0.9 kb PCR; format: biochemical, Pyrococcus furiosus; details: detergent in storage buffer
Description: Accelerated stability studies were performed to illustrate the stabilizing effects of zwitterionic detergents. Pfu fusion DNA polymerase was purified in the absence of detergents and then diluted to 28 ng/ul in storage buffer lacking detergent or storage buffers containing either conventional non-ionic detergent (0.1% Igepal/0.1% Triton X100) or various zwitterionic detergents. Protein samples were stored at −20° C. or were heated at 95° C. for varying lengths of time. Residual activity was assayed by amplifying a 0.9 kb genomic target in PCR in fusion DF-buffer supplemented with either 0.1% Triton X100 or 0.1% CHAPSO/0.1% Anzergent 3-12.

Taq DNA polymerase = Taq DNA polymerase (Thermus aquaticus, UniProt P19821); details: disclosed in U.S. Pat. No. 6,127,155; cited from earlier work
Taq DNA polymerase, sequence (P19821 whole entry): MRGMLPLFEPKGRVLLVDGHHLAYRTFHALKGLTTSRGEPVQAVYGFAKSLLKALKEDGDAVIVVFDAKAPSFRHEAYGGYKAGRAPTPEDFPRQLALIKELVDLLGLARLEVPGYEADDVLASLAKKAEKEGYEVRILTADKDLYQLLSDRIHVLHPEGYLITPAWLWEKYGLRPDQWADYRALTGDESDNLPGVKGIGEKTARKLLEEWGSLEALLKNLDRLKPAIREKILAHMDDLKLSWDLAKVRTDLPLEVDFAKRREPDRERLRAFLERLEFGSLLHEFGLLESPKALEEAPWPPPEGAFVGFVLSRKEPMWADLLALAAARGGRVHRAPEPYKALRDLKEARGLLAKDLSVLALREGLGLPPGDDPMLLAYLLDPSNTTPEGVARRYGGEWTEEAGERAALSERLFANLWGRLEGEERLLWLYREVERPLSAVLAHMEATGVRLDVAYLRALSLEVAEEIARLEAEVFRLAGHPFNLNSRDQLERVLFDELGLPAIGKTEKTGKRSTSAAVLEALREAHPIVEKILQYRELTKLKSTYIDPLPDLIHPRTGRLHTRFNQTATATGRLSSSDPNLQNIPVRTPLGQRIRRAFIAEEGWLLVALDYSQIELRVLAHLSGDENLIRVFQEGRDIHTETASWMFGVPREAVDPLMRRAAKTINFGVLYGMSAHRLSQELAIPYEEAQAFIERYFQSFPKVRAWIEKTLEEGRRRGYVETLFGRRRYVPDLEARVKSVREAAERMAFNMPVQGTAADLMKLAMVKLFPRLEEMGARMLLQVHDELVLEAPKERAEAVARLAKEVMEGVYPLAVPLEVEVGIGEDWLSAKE

[5] = combination CHAPS (0.05, 0.1%) + Anz. 3-10 (0.1-0.5%)
[6] = combination CHAPSO (0.1%) + Anz. 3-10 (0.05-0.4%)
[7] = combination CHAPSO (0.1%) + Anz. 3-10 (0.05-0.5%)
[8] = combination CHAPS (0.05%) + Anz. 3-12 (0.05-0.3%)
[9] = combination CHAPS (0.05%) + Anz. 3-12 (0.05-0.5%)
[10] = combination CHAPS (0.1%) + Anz. 3-12 (0.05-0.5%)
[11] = combination CHAPS (0.05-0.5%) + CHAPSO (0.05-0.3%)

Row | Compound | PCR amplification with detergent alone (FIG. 2) [1] | detergent concentration at which amplifications generated product yields (FIG. 1) [1] | Effective range, concentration of each detergent in combination, SYBR Green QPCR [2] | Optimal range, concentration of each detergent in combination, SYBR Green QPCR [2] | Effective range, Detergent 1 (single detergent), SYBR Green QPCR [2] | Optimal range, Detergent 1 (single detergent), SYBR Green QPCR [2] | product yields on addition of zwitterionic detergent to PCR buffer (FIG. 5) (Pfu DNA polymerase) | Optimal range, concentration of each detergent in combination [3, 6] | Effective range, concentration of each detergent in combination [3, 7] | Effective range, Detergent 1 (single detergent) [3] | Optimal range, Detergent 1 (single detergent) [3] | PCR product with detergent alone (FIG. 3) [1] | effect on stability of Pfu fusion DNA polymerase (FIG. 6) [4] | effectiveness relative to CHAPS and Anzergent 3-10 (FIG. 5) (Pfu DNA polymerase) | Optimal range, concentration of each detergent in combination [3, 8] | Effective range, concentration of each detergent in combination [3, 9] | Effective range, concentration of each detergent in combination [3, 10] | Optimal range, concentration of each detergent in combination [3, 10] | QPCR amplification efficiency, total fluorescence and Ct values versus 0.1% Triton X100 (FIG. 7) [2] | amplification efficiency, total fluorescence and Ct values (FIG. 8) [2] | other results
1 | CCCCCCCCCC[N+](C)(C)CCCS(=O)(=O)[O-] [Anzergent 3-10, n-Decyl-N,N-dimethyl-3-ammonio-1-propanesulfonate] | little amplification | 0.4-0.8% | Anz. 3-10 (0.02-0.15%) | Anz. 3-10 (0.05-0.15%) | Anz. 3-10 (0.1-0.3%) | Anz. 3-10 (0.2%) | dramatically improved | Anz. 3-10 (0.05-0.4%) | Anz. 3-10 (0.05-0.5%) | Anz. 3-10 (0.4-0.8%) | Anz. 3-10 (0.4-0.8%) |  |  |  |  |  |  |  |  |  | detergent concentration with favorable result on PCR amplification (FIG. 2) ([1]; individual detergent added to the reaction): 0.4% and 0.8%; Effective range, concentration of each detergent in combination [3, 5]: Anz. 3-10 (0.1-0.5%); Optimal range, concentration of each detergent in combination [3, 5]: Anz. 3-10 (0.1-0.5%)
2 | CCCCCCCCCCCC[N+](C)(C)CCCS(=O)(=O)[O-] [Anzergent 3-12, n-Dodecyl-N,N-dimethyl-3-ammonio-1-propanesulfonate] |  | 0.1-0.2% |  |  | Anz. 3-12 (0.1-0.2%) | Anz. 3-12 (0.15-0.2%) | dramatically improved |  |  | Anz. 3-12 (0.1-0.4%) | Anz. 3-12 (0.1-0.2%) | did not show observable levels of PCR product | enhance the stability | somewhat more effective | Anz. 3-12 (0.05-0.3%) | Anz. 3-12 (0.05-0.5%) | Anz. 3-12 (0.05-0.5%) | Anz. 3-12 (0.05-0.5%) |  |  | Effective range, concentration of each detergent in combination ([3]; combination CHAPSO (0.05%, 0.1%) + Anz. 3-12 (0.05-0.5%)): Anz. 3-12 (0.05-0.5%)
3 | C[C@H](CCC(=O)NCCC[N+](C)(C)CC(O)CS(=O)(=O)[O-])[C@H]1CC[C@H]2[C@@H]3[C@H](O)C[C@@H]4C[C@H](O)CC[C@]4(C)[C@H]3C[C@H](O)[C@]12C (some centres unmarked) [CHAPSO] | little amplification | 0.15-0.3% |  |  | CHAPSO (0.1-0.75%) | CHAPSO (0.2-0.5%) | dramatically improved | CHAPSO (0.1%) | CHAPSO (0.1%) | CHAPSO (0.1-0.8%) | CHAPSO (0.15-0.35%) | did not show observable levels of PCR product | enhance the stability | somewhat more effective |  |  |  |  | comparable | favorable | Effective range, concentration of each detergent in combination [3, 11]: CHAPSO (0.05-0.3%)
4 | C[C@H](CCC(=O)NCCC[N+](C)(C)CCCS(=O)(=O)[O-])[C@H]1CC[C@H]2[C@@H]3[C@H](O)C[C@@H]4C[C@H](O)CC[C@]4(C)[C@H]3C[C@H](O)[C@]12C [CHAPS] |  |  | CHAPS (0.1%) | CHAPS (0.1%) | CHAPS (0.1-0.5%) | CHAPS (0.5%) | dramatically improved |  |  | CHAPS (0.2-0.8%) | CHAPS (0.2-0.4%) |  | enhance the stability |  | CHAPS (0.05%) | CHAPS (0.05%) | CHAPS (0.1%) | CHAPS (0.1%) | comparable | favorable | Effective range, concentration of each detergent in combination [3, 11]: CHAPS (0.05-0.5%)
5 | NP-40 |  |  |  |  |  |  |  |  |  |  |  |  |  |  |  |  |  |  |  |  | effect on Taq DNA polymerase (Taq DNA polymerase): stabilize
